Test results published in ChEMBL document CHEMBL4699600, “Design, Synthesis, and Biological Evaluation of Covalent Inhibitors of Focal Adhesion Kinase (FAK) against Human Malignant Glioblastoma” (J Med Chem, 2020).
The source made the active and inactive calls. The rule behind the calls is not given here.

Tests used:
[1] = tested on: U-87 MG; assay: Induction of cell cycle arrest in human U87MG cells assessed as increase in accumulation at G2 phase at 1 uM incubated for 48 hrs by propidium iodide staining based flow cytometry analysis; assay type: functional; conditions: U-87MG ATCC
[2] = target: T1, Focal adhesion kinase 1 (Homo sapiens, UniProt Q05397); conditions: U-87 MG, dose microM 0.1-5, time 48.0 hrs
Target sequence in this assay (Q05397 2-1052 limits assumed): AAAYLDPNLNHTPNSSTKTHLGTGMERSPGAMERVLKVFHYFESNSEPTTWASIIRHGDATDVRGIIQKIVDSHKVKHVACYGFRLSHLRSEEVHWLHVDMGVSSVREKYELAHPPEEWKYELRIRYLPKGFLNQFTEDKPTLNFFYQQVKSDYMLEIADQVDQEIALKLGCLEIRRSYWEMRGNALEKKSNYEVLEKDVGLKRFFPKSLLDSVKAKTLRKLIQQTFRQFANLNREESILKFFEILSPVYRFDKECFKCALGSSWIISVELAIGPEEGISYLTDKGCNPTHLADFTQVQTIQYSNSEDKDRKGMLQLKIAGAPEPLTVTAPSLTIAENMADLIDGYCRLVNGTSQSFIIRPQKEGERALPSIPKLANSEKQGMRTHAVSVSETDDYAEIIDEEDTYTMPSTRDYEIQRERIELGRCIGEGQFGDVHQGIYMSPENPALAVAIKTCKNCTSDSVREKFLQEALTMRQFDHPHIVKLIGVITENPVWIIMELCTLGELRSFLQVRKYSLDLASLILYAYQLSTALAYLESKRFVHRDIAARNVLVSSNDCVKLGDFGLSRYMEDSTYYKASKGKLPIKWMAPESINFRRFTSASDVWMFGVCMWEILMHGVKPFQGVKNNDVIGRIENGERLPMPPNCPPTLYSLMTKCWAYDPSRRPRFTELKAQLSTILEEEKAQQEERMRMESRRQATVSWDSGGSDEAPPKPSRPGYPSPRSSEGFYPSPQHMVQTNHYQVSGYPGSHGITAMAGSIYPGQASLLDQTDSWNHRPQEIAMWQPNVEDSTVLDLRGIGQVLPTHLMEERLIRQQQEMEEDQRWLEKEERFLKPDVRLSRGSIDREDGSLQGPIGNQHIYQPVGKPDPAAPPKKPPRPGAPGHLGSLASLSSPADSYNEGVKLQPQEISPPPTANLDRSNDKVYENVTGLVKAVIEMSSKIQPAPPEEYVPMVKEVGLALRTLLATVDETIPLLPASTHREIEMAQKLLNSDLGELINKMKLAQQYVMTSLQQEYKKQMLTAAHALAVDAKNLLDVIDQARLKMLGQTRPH

[3] = target: T1, Focal adhesion kinase 1; assay: Inhibition of recombinant human N-terminal His-tagged FAK (393 to 698 residues) expressed in baculovirus infected Sf9 insect cells using Poly (4:1 Glu, Tyr) as substrate measured after 1 hr by ADP-glo luminescence assay
Target sequence in this assay (Q05397 whole entry, the tested form may be a part): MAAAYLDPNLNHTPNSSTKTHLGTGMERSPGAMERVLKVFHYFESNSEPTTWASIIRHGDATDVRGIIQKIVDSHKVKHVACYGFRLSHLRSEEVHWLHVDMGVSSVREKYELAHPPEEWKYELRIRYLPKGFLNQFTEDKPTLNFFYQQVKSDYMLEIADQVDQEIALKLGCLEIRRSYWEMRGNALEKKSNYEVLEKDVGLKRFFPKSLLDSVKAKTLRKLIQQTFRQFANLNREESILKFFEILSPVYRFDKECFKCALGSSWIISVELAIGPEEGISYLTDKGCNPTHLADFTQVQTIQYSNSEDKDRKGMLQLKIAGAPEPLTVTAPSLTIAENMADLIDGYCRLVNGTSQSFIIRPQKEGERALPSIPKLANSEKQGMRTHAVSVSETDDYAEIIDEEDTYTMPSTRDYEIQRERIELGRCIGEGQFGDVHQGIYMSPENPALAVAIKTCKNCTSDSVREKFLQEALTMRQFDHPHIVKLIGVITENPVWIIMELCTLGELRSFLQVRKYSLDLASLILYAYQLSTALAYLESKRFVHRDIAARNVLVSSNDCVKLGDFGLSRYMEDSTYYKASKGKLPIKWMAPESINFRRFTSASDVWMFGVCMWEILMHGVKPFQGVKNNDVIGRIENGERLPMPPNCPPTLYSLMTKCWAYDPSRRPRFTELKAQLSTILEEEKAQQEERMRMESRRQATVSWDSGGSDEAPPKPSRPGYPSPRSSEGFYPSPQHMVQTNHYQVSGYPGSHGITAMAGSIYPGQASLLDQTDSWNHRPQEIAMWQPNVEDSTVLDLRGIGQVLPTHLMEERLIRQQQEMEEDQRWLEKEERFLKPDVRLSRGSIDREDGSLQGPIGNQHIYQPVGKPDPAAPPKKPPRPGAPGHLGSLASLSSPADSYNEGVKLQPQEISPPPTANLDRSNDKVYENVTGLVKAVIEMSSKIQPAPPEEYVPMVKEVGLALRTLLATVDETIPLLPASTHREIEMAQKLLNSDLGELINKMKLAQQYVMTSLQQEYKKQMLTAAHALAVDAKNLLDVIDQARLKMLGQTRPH

[4] = target: Epidermal growth factor receptor (Homo sapiens) (UniProt P00533); assay: Inhibition of human recombinant EGFR at 100 nM in presence of [gamma33P]ATP by radiometric assay relative to control
[5] = tested on: U-87 MG; assay: Induction of apoptosis in human U87MG cells assessed as live cells at 10 uM incubated for 48 hrs by Annexin-V/propidium iodide staining based flow cytometric method (reference value: 94.2%); assay type: functional, U-87MG ATCC
[6] = target: Fibroblast growth factor receptor 1 (Homo sapiens) (UniProt P11362); assay: Inhibition of human recombinant FGFR1 (456 to 765 residues) at 100 nM in presence of [gamma33P]ATP by radiometric assay relative to control
[7] = target: Protein-tyrosine kinase 2-beta (Homo sapiens) (UniProt Q14289); assay: Inhibition of recombinant human full length PYK2 at 100 nM in presence of [gamma32P]-ATP by radiometric analysis relative to control
[8] = target: Platelet-derived growth factor receptor alpha (Homo sapiens) (UniProt P16234); assay: Inhibition of human recombinant PDGFRA at 100 nM by [gamma-33ATP] radiometric assay relative to control
[9] = target: T1, Focal adhesion kinase 1; conditions: U-87 MG, dose microM 0.1-10, time 48.0 hrs
Target sequence in this assay (Q05397 2-1052 limits assumed): as the sequence (Q05397 2-1052 limits assumed) above

[10] = tested on: U-87 MG; assay: Cytotoxicity against human U-87 MG cells assessed as reduction in cell viability incubated for 48 hrs by MTT assay
[11] = tested on: U-87 MG; assay: Inhibition of cell migration in human U87MG cells assessed as reduction of cell mobility at 0.2 to 1 uM measured at 24 to 48 hrs by scratch wound assay; assay type: functional, cell-based; conditions: U-87MG ATCC, dose microM 0.2-1, time hrs 24-48
[12] = tested on: U-87 MG; assay: Induction of apoptosis in human U87MG cells assessed as late apoptotic cells at 10 uM incubated for 48 hrs by Annexin-V/propidium iodide staining based flow cytometric method (reference value: […]); assay type: functional, U-87MG ATCC
[13] = tested on: U-87 MG; assay: Induction of cell cycle arrest in human U87MG cells assessed as accumulation at G0/G1 phase at 1 uM incubated for 48 hrs by propidium iodide staining based flow cytometry analysis (reference value: 51.6 +/- […]); assay type: functional, U-87MG ATCC
[14] = tested on: U-87 MG; assay: Induction of apoptosis in human U87MG cells assessed as necrotic cells at 10 uM incubated for 48 hrs by Annexin-V/propidium iodide staining based flow cytometric method (reference value: […]); assay type: functional, U-87MG ATCC
[15] = target: Insulin-like growth factor 1 receptor (Homo sapiens) (UniProt P08069); assay: Inhibition of human recombinant IGF1R at 100 nM by [gamma-33ATP] radiometric assay relative to control
[16] = target: Insulin receptor (Homo sapiens) (UniProt P06213); assay: Inhibition of human recombinant IR at 100 nM by [gamma-33ATP] radiometric analysis relative to control
[17] = tested on: U-87 MG; assay: Induction of cellular senescence in human U87MG cells assessed as flat and enlarged cells at 1 uM incubated for 48 hrs by TO-PRO-3 dye based immunocytochemistry analysis; assay type: functional, cell-based; conditions: U-87MG ATCC
[18] = tested on: U-87 MG; assay: Activation of ERK in human U87MG cells at 0.1 to 10 uM incubated for 48 hrs by Western blot analysis; assay type: cell-based; conditions: dose microM 0.1-10, time 48.0 hrs
[19] = target: T1, Focal adhesion kinase 1; conditions: U-87 MG, dose microM 0.1-10, time 48.0 hrs; remark: listed apart in the source
Target sequence in this assay (Q05397 2-1052 limits assumed): as above

[20] = target: T1, Focal adhesion kinase 1; assay: Covalent inhibition of recombinant human N-terminal His-tagged FAK (393 to 698 residues) expressed in baculovirus infected Sf9 insect cells using Poly (4:1 Glu, Tyr) as substrate preincubated for 2 to 60 mins followed by substrate addition and measured after 1 hr by ADP-glo luminescence assay
Target sequence in this assay (Q05397 whole entry, the tested form may be a part): as the sequence (Q05397 whole entry, the tested form may be a part) above

[21] = tested on: U-251; assay: Cytotoxicity against human U251 cells assessed as reduction in cell viability incubated for 48 hrs by MTT assay; conditions: U-251, 48 h
[22] = target: T2, Serine/threonine-protein kinase AKT (Homo sapiens) (UniProt P31751+Q9Y243+P31749); assay: Inhibition of human Akt at 100 nM in presence of [33P]-ATP by radiometric analysis relative to control; assay type: protein assay
[23] = tested on: U-87 MG; assay: Induction of cell cycle arrest in human U87MG cells assessed as accumulation at S phase at 1 uM incubated for 48 hrs by propidium iodide staining based flow cytometry analysis (reference value: 19.5 %); assay type: functional, U-87MG ATCC
[24] = target: Mast/stem cell growth factor receptor Kit (Homo sapiens) (UniProt P10721); assay: Inhibition of human recombinant c-kit at 100 nM in presence of [gamma33P]ATP by radiometric assay relative to control
[25] = target: T2, Serine/threonine-protein kinase AKT (Homo sapiens); assay: Activation of AKT in human U87MG cells at 0.1 to 10 uM incubated for 48 hrs by Western blot analysis; assay type: cell-based; conditions: U-87 MG, dose microM 0.1-10, time 48.0 hrs
[26] = target: T1, Focal adhesion kinase 1; conditions: U-87 MG, dose microM 0.1-5, time 48.0 hrs; remark: listed apart in the source
Target sequence in this assay (Q05397 2-1052 limits assumed): as the sequence (Q05397 2-1052 limits assumed) above

[27] = tested on: U-87 MG; assay: Induction of apoptosis in human U87MG cells assessed as early apoptotic cells at 10 uM incubated for 48 hrs by Annexin-V/propidium iodide staining based flow cytometric method (reference value: 4.55 %); assay type: functional, U-87MG ATCC
[28] = tested on: U-87 MG; assay: Inhibition of cell adhesion in human U87MG cells assessed as increase in appearance of stress fiber at 1 uM incubated for 48 hrs by FITC-conjugated phalloidin and TO-PRO3 staining based microscopic analysis; assay type: functional; conditions: U-87MG ATCC
[29] = target: T1, Focal adhesion kinase 1; conditions: U-87 MG, dose microM 0.6-3, time 48.0 hrs
Target sequence in this assay (Q05397 2-1052 limits assumed): as above

[30] = target: T1, Focal adhesion kinase 1; assay: Inhibition of human recombinant FAK at 100 nM by [gamma32P]-ATP radiometric analysis relative to control
Target sequence in this assay (Q05397 2-1052 limits assumed): as above

[31] = species on record: Homo sapiens; assay: Inhibition of human recombinant Erk at 100 nM measured in presence of [33P]-ATP by radiometric analysis relative to control
[32] = tested on: U-87 MG; assay: Induction of cell cycle arrest in human U87MG cells assessed as accumulation in G2/M phase at 1 uM incubated for 48 hrs by propidium iodide staining based flow cytometry analysis (reference value: 28.9 +/- 2.1 %); assay type: functional, U-87MG ATCC; conditions: dose microM 1-10
[33] = tested on: A 172; assay: Cytotoxicity against human A172 cells assessed as reduction in cell viability incubated for 48 hrs by MTT assay; conditions: A 172, 48 h
[34] = target: Proto-oncogene tyrosine-protein kinase Src (Homo sapiens) (UniProt P12931); assay: Inhibition of human recombinant Src at 100 nM in presence of [gamma33P]ATP by radiometric assay relative to control
[35] = tested on: U-87 MG; assay: Induction of cell cycle arrest in human U87MG cells assessed as multi-nucleated giant cells at 1 uM incubated for 48 hrs by TO-PRO-3 dye based immunocytochemistry analysis; assay type: functional; conditions: U-87MG ATCC
[36] = target: T1, Focal adhesion kinase 1; conditions: U-87 MG, dose microM 0.1-10, time 48.0 hrs; remark: listed apart in the source

Sequence of Insulin-like growth factor 1 receptor (Homo sapiens) (P08069 31-736 limits assumed): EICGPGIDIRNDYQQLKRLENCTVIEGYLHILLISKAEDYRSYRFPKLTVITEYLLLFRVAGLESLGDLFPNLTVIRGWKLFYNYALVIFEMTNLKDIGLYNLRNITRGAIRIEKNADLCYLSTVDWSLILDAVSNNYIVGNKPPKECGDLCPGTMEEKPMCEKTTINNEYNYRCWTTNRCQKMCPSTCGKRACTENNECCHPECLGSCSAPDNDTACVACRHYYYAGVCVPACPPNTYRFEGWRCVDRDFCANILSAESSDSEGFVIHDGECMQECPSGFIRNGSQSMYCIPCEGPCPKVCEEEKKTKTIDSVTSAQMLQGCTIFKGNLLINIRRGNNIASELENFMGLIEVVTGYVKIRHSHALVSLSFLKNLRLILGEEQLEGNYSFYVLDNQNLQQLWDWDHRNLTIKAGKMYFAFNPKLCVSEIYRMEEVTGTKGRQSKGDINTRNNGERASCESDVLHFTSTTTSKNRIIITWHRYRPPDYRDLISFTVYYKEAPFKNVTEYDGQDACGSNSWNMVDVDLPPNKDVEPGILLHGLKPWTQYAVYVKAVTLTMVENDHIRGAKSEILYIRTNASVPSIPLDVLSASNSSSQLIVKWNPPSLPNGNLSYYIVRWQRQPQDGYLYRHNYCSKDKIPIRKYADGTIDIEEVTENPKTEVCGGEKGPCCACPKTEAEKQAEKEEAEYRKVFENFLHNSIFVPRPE
Sequence of Insulin-like growth factor 1 receptor (Homo sapiens) (P08069 741-1367 limits assumed): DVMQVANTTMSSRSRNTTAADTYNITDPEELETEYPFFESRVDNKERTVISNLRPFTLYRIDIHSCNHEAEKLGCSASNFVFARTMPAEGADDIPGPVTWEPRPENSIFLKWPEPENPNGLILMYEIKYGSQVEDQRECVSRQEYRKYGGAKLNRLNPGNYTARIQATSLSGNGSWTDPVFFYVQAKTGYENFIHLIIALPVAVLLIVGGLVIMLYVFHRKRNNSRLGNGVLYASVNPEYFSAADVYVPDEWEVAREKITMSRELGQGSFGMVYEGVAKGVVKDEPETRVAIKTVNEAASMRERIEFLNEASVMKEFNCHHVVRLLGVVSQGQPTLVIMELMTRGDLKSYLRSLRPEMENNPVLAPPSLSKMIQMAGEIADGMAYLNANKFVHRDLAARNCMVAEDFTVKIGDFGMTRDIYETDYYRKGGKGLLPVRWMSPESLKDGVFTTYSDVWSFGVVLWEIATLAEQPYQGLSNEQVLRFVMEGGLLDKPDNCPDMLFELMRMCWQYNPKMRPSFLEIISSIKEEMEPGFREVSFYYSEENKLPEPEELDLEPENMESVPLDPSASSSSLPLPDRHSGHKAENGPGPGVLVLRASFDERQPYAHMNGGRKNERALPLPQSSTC
Sequence of Mast/stem cell growth factor receptor Kit (Homo sapiens) (P10721 whole entry): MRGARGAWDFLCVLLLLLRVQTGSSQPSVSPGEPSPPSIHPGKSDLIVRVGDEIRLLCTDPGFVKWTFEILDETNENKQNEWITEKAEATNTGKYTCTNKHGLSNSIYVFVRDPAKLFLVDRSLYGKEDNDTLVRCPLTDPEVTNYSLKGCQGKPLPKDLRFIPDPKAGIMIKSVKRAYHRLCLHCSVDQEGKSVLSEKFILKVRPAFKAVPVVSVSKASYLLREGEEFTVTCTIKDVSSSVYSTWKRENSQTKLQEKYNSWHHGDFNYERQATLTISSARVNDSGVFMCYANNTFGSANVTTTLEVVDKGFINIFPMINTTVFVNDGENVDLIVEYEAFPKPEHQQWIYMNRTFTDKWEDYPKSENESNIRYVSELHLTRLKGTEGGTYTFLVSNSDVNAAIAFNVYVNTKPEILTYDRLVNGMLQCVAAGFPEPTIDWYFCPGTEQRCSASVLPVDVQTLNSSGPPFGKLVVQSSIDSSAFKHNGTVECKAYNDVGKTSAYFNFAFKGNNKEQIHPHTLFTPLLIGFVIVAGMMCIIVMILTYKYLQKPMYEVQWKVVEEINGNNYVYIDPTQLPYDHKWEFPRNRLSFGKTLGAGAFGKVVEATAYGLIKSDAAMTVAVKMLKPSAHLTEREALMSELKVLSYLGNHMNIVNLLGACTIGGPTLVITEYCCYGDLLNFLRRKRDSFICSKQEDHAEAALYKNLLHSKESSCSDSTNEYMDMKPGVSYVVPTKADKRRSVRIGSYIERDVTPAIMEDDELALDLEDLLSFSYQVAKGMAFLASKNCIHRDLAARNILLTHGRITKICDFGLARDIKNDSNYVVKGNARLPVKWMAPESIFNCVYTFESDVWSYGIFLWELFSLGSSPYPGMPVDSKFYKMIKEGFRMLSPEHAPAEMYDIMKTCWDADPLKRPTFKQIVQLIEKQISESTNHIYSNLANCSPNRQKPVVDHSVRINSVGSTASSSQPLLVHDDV

| IC50 [3] [nM] | inhibition [4] [%] | inhibition [6] [%] | inhibition [7] [%] | inhibition [8] [%] | SMILES | Activity [1] | Activity [5] [%] | IC50 [10] [nM] | inhibition [11] | Activity [12] [%] | Activity [13] [%] | Activity [14] [%] | Activity [17] | IC50 [21] [nM] | Activity [23] [%] | Activity [27] [%] | inhibition [28] | Activity [32] [%] | IC50 [33] [nM] | Activity [35] | other results |
| --- | --- | --- | --- | --- | --- | --- | --- | --- | --- | --- | --- | --- | --- | --- | --- | --- | --- | --- | --- | --- | --- |
| 0.6 | 47.2 | 87.1 | 97.6 | 91 | C=CC(=O)NCCNc1c(NCc2ccc(Nc3ncc(Cl)c(Nc4ccccc4C(=O)NC)n3)cc2)c(=O)c1=O | Active | 90.8 | 2200 | Active | 2.45 | 9.2 | 0.67 | Active | 220 | 10 | 6.05 | Active | 80.8 | 650 | Active | inhibition [2]: inactive; inhibition [9]: Dose-dependent effect; inhibition [15]: 91.5%; inhibition [16]: 57.6%; Activity [18]: inactive; inhibition [19]: Dose-dependent effect; Ki [20]: 0.23 nM; inhibition [22]: 3.7%; inhibition [24]: 0.2%; Activity [25]: inactive; inhibition [26]: Dose-dependent effect; inhibition [29]: Dose-dependent effect; inhibition [30]: 98.1%; inhibition [31]: 14.2%; inhibition [34]: 52.1%; inhibition [36]: Dose-dependent effect |
| – | – | – | – | – | CNC(=O)c1ccccc1Nc1nc(Nc2ccc(CNc3c(NCCNC(=O)/C(C#N)=C/C4CC4)c(=O)c3=O)cc2)ncc1Cl | Active | 87.3 | 7200 | Active | 4.06 | 8.1 | 1.39 | Active | 1200 | 8.8 | 7.3 | Active | 83.1 | 890 | Active | – |
| – | – | – | – | – | CNC(=O)c1ccccc1Nc1nc(Nc2ccc(N3CCOCC3)cc2OC)ncc1Cl | Active | 88.1 | 2900 | Active | 2.45 | 16.2 | 2.2 | Active | 6300 | 19.5 | 7.24 | Active | 66.1 | 8300 | Active | inhibition [2]: Active; inhibition [9]: Dose-dependent effect; inhibition [19]: Dose-dependent effect; inhibition [29]: Dose-dependent effect; inhibition [36]: Dose-dependent effect |
| 5.5 | 1.2 | 32.5 | 68.3 | 12.5 | C=CC(=O)NCCNc1c(NCc2ccc(Nc3ncc(Cl)c(NCc4cccnc4N(C)S(C)(=O)=O)n3)cc2)c(=O)c1=O | – | – | – | – | – | – | – | – | – | – | – | – | – | – | – | inhibition [15]: 28.1%; inhibition [16]: 15.1%; inhibition [22]: 2.5%; inhibition [24]: 0%; inhibition [30]: 92.2%; inhibition [31]: 4.1%; inhibition [34]: 17.9% |
| 6.8 | 29 | 88.3 | 99.8 | 78.4 | C=CC(=O)NCCNc1c(NCc2ccc(Nc3ncc(C(F)(F)F)c(Nc4ccccc4C(=O)NC)n3)cc2)c(=O)c1=O | Active | – | 3300 | Active | 3.85 | 13.7 | 1.1 | Active | 150 | 11.2 | 5.6 | Active | 75.1 | 130 | Active | inhibition [15]: 94.4%; inhibition [16]: 82.5%; Ki [20]: 2.64 nM; inhibition [22]: 25.1%; inhibition [24]: 0.1%; inhibition [29]: Dose-dependent effect; inhibition [30]: 98.6%; inhibition [31]: 21.8%; inhibition [34]: 55.6% |
| 1.2 | 25.1 | 83.5 | 97.5 | 67.5 | CNC(=O)c1ccccc1Nc1nc(Nc2ccc(CNc3c(NCCNC(=O)/C(C#N)=C/C(C)C)c(=O)c3=O)cc2)ncc1Cl | Active | 96.4 | 7100 | Active | 0.21 | 12.7 | 3.37 | Active | 9800 | 8.2 | 0 | Active | 79.1 | 1300 | Active | inhibition [2]: inactive; inhibition [9]: Dose-dependent effect; inhibition [15]: 71.9%; inhibition [16]: 32.4%; Activity [18]: inactive; inhibition [19]: Dose-dependent effect; Ki [20]: 0.47 nM; inhibition [22]: 19.9%; inhibition [24]: 0%; Activity [25]: inactive; inhibition [26]: Dose-dependent effect; inhibition [29]: Dose-dependent effect; inhibition [30]: 94.1%; inhibition [31]: 4.3%; inhibition [34]: 31.1%; inhibition [36]: Dose-dependent effect |
